PMC9223658, “New Borane-Protected Derivatives of α-Aminophosphonous Acid as Anti-Osteosarcoma Agents: ADME Analysis and Molecular Modeling, In Vitro Studies on Anti-Cancer Activities, and NEP Inhibition as a Possible Mechanism of Anti-Proliferative Activity” (International Journal of Molecular Sciences, 2022)

Columns and labels:
Saos-2 cells [1] = test: Cell cycle assay (PI/RNase, flow cytometry); format: cell-based, human; conditions: 72 h
Protocol: (§1) To examine the influence of compounds 4 and 6 on the distribution of cells in the cell cycle phases, the HOS and Saos-2 osteosarcoma cells (3.0 × 10^4 cells/mL) were seeded into 6-well plates (Nunc) and incubated with compounds 4 and 6 at concentrations of 12.5, 25, 50 µM and 20, 40, 80 µM as well as 15, 30; 60 µM and 21.25, 42.5, 85 µM, respectively. The compound solutions were prepared in a medium with 10% FBS. The control was constituted by the untreated cells (0 µM). The cells were treated for 72 h. Next, floating and adherent cells were harvested and subjected to further steps of the PI staining procedure (PI/RNase Staining Buffer, BD Pharmingen^TM, BD Biosciences, San Jose, CA, USA) previously described. The PI fluorescence intensity was measured using FACS Calibur (BD Pharmingen^TM), and the obtained data were analyzed using Cell Quest Pro Version 6.0. for the Macintosh operating system (BD Pharmingen^TM). The presented results were calculated as a percent of cells in the respective cell cycle phases (sub-G1, G0/G1, S and G2) among all the analyzed cells.

HOS cells [2] = test: Cell cycle assay (PI/RNase, flow cytometry); format: cell-based, human; conditions: 72 h
Protocol: as §1

[3] = MTT viability assay, 24 h; format: cell-based; conditions: human, normal osteoblasts hFOB 1.19 cells, 2% FBS, read-out: CC50 (µM ± SD) hFOB 1.19
Protocol: One of the features specific totumor cells is the unlimited potential for proliferation. […] To this end, the assay conditions were established suchthat they encourage the proliferation of OS cells, i.e., the cell cultures at low density were incubated with compounds diluted in the growth medium (10% FBS) for an extended time of 96 h. Additionally, cisplatin, i.e., a common cytostatic used in osteosarcoma treatment, was included as a positive control in this study. Moreover, since the new generation of anti-cancer compounds is highly desired to be inert (non-cytotoxic) towards normal cells, the influence of compounds 1–7 on the viability of human normal cells (osteoblasts hFOB 1.19 and colon fibroblasts CCD-18Co) was also determined.To this end, the assay conditions were established such that they restrict the proliferation of OS cells and to establish whether the compounds have cytotoxic potential, i.e., the cell cultures were incubated with compounds diluted in the medium with a reduced concentration of FBS (2%) for a shortened time of 24 h. […] However, this activity varied depending on both the types of the compounds and the osteosarcoma cell lines (Table 4).
The anti-proliferative activity of compounds 1–7 against the HOS and Saos-2 osteosarcoma cells and the viability of the human normal hFOB 1.19 and CCD-18Co cells were screened by means of the MTT method. This method is commonly used to assess cell viability and proliferation or to determine the cytotoxicity of any compounds. It is a reliable method for this purpose because it is based on measurement of the level reduction in MTT dye to formazan byNAD(P)H-dependent oxidoreductase enzymes of metabolically active cells.
To assess the viability of human normal cells, confluent hFOB 1.19 (3 × 10^5 cells/mL) and CCD-18Co (1 × 10^5 cells/mL) cells seeded in 96-well plates (Nunc) were incubated with compounds 1–7 at concentrations of 3.125, 6.25, 12.5, 25, 50, 100 and 200 µM prepared in medium with 2% FBS (maintaining medium) for 24 h. The control was constituted by the untreated cells (0 µM). Next, the MTT assay was carried out as described previously.
(§2) The results of these assays were calculated as a percent of the untreated cells (100%; control). Then, the IC50 (concentration resulting in 50% inhibition of proliferation) and CC50 (concentration resulting in a 50% decrease in viability) values were calculated from a non-linear regression (log(inhibitor) vs. normalized response-variable slope) using GraphPad Prism 5.0 (GraphPAD Software Inc., San Diego, CA, USA). The IC50 and CC50 results were presented as themean ± SD of at least three experiments. In the case of the BrdU assay, the results were presented as a percent of untreated cells (100%; control).

[4] = test system: active caspase 3 in Saos-2 cells; test: Active caspase 3 assay (flow cytometry); format: cell-based, human; conditions: 72 h
Protocol: (§3) The level of active executor caspase 3 and initiator caspase 9 was determined to examine whether compounds 4 and 6 induced apoptosis in the HOS and Saos-2 cells. The influence of compounds 4 and 6 on HOS and Saos-2 were determined with the caspase 3 assay, whereas the influence of compound 6 on the HOS cells was investigated with the caspase 9 assay. In both assays, the osteosarcoma cells (3.0 × 10^5 cells/mL) were seeded in 6-well plates. The cells were treated with compounds 4 and 6 at concentrations of 12.5, 25, 50 µM and 20, 40, 80 µM as well as 15, 30, 60 µM and 21.25, 42.5, 85 µM for 72 h, respectively. The solutions of the compounds were prepared in a medium with 2% FBS. […] Next, floating and adherent cells were harvested and subjected to further steps of the staining procedures according to the manufacturer’s instruction. The level of active caspase 3 and caspase 9 was determined using the PE Active Caspase-3 Apoptosis Kit (BD Pharmingen^TM) and the CaspaTag^TM Caspase-9 in Situ Assay Kit (Millipore, Darmstadt, Germany), respectively. The number of stained cells (active caspase 3- or 9-positive cells) was measured using FACS Calibur, and the obtained data were analyzed using Cell Quest Pro Version 6.0. for the Macintosh operating system (BD Pharmingen™). The presented results were calculated as a percent of cells with either active caspase 3 or 9 among all the analyzed cells.

[5] = test system: active caspase 3 in HOS cells; test: Active caspase 3 assay (flow cytometry); format: cell-based, human; conditions: 72 h
Protocol: as §3

Saos-2 cells [6] = test: BrdU proliferation assay, 96 h; format: cell-based, human; conditions: Saos-2, 60 µM, cells pre-treated with 100 µM thiorphan for 1 h, 96 h
Protocol: (§4) In the study on the implication of NEP in the anti-proliferative activity of compound 4, cell proliferation was determined with the BrdU assay. Cell cultures were prepared as described above. Depending on the requirements, the HOS and Saos-2 cells were treated with non-cytotoxic concentrations of the NEP inhibitor—thiorphan (1, 5, 20, 100, 200, 500 µM) or pre-treated with thiorphan (100 µM) for 1 h. In this scheme, compound 4 (HOS—25 µM; Saos-2—60 µM) was added alone or in combination with the NEP inhibitor into the cell cultures. Finally, cell proliferation was evaluated with the BrdU Cell Proliferation Assay according to the manufacturer’s instructions (Millipore, Darmstadt, Germany) after a 96-h incubation.
as §2

HOS cells [7] = test: BrdU proliferation assay, 96 h; format: cell-based, human; conditions: 25 µM, cells pre-treated with 100 µM thiorphan for 1 h, 96 h
Protocol: as §4, §2

[8] = test system: active caspase 9 in HOS cells; test: Active caspase 9 assay (flow cytometry); format: cell-based, human; conditions: 72 h
Protocol: as §3

SMILES | number of cells at sub-G1 phase (Saos-2 cells [1]; Saos-2, 30 µM and 60 µM) | number of cells at G0/G1 phase (HOS cells [2]; 25 µM and 50 µM) | number of cells at sub-G1 and G2 phases (HOS cells [2]; 25 µM and 50 µM) | CC50 at 24 h [3] [µM] | increase in active caspase 3 vs untreated cells ([4]; Saos-2, 30 µM) | increase in active caspase 3 vs untreated cells ([4]; Saos-2, 60 µM) [%] | increase in active caspase 3 vs untreated cells ([5]; 25 µM) | increase in active caspase 3 vs untreated cells ([5]; 50 µM) [%] | effect of thiorphan pretreatment on anti-proliferative properties (Saos-2 cells [6]) | effect of thiorphan pretreatment on anti-proliferative properties (HOS cells [7]) | number of cells at sub-G1 phase (Saos-2 cells [1]; Saos-2, 42.5 µM and 85 µM) | number of cells at G0/G1 phase (HOS cells [2]; 40 µM and 80 µM) | number of cells at sub-G1 and G2 phases (HOS cells [2]; 40 µM and 80 µM) | increase in active caspase 9 vs untreated cells ([8]; 40 µM) | increase in active caspase 9 vs untreated cells ([8]; 80 µM) [%] | increase in active caspase 3 vs untreated cells ([4]; Saos-2, 42.5 µM) | increase in active caspase 3 vs untreated cells ([4]; Saos-2, 85 µM) [%] | increase in active caspase 3 vs untreated cells ([5]; 40 µM) | increase in active caspase 3 vs untreated cells ([5]; 80 µM) [%]
[BH3-][P+](OC(C)C)(OC(C)C)C(Nc1ccc(Br)cc1)c1ccc([N+](=O)[O-])cc1 (centres unmarked) [Compound 4, [1-(N-p-bromophenylamino)]-1-(p-nitrophenyl)methylphosphonousacid-borane diisopropyl ester] | significant increase | significant decrease | statistically significant increase | 189 ± 36.4 | approx. 5% | ~10 | approx. 5% | ~6 | partially abolished | partially abolished | – | – | – | – | – | – | – | – | –
[BH3-][P+](OC(C)C)(OC(C)C)C(Nc1ccc(C)cc1)c1ccccc1 (centres unmarked) [Compound 6, [1-(N-p-tolylamino)]-1-phenylmethylphosphonous acid-borane diisopropyl ester] | – | – | – | 266 ± 110 | – | – | – | – | – | – | significant increase | significant decrease | statistically significant increase | approx. 4% | ~6 | approx. 4% | ~6 | approx. 9% | ~20
